# Reference: US20110224186A1, “CARBACEPHEM BETA-LACTAM ANTIBIOTICS” (Achaogen, Inc., priority 2008, published 2011)
# How the values were obtained:
# Experiment in all cases: MIC assay, broth microdilution in CAMHB
# Format in all cases: cell-based
# [1] = tested on: S. aureus ASAU001 (Susceptible Organism ATCC 29213); settings: 16-20 h at 35° C.; for MIC: Staphylococcus aureus, ATCC29213, 2% NaCl, read-out: MIC ASAU 001
# Protocol: (§1) The in vitro MIC for bacterial isolates may be obtained in the following manner: a test compound is incorporated into a series of two-fold dilutions in cation adjusted Mueller-Hinton broth (CAMHB). Different bacterial strains diluted to provide a uniform inoculum are added to the CAMHB containing test compounds. A well without test compound is included for each strain as a growth control. […] The procedures used in these experiments are generally those standardized by the Clinical and Laboratory Standards Institute (CLSI), as set forth in the CLSI publication entitled “M7-A7. Methods for dilution antimicrobial susceptibility tests for bacteria that grow aerobically; approved standard-seventh edition.” (2006), which is incorporated by reference as if fully set forth herein. The following exemplifies such a procedure although it is to be understood that modifications of the procedure may be implemented as required.
# (§2) Two-fold dilutions of the test compounds are prepared in CAMHB at 2× the concentration range to be tested if the compounds are soluble in aqueous solution. Alternately, dimethylsulfoxide (DMSO) is used to prepare two-fold dilutions at 10× the concentration range to be tested. Reference drugs such as cefotaxime, vancomycin or imipenem are used as positive controls. A few isolated colonies are retrieved from a pure culture prepared on an agar plate and suspended in PBS until the turbidity of the suspension matches a 0.5 McFarland standard which is equal to approximately 10^8 CFU/mL. This solution is further diluted in CAMHB to 10^6 CFU/mL if compounds are diluted in CAMHB and 5×10^5 CFU/mL if compounds are diluted in DMSO. The CAMHB plates containing the compound dilutions are combined in equal volumes with the higher density inoculum, or 10 μL of the DMSO dilutions are added to the lower density inoculum. When S. aureus is the organism being tested and the compound is oxacillin, a beta-lactam or a carbacephem compound of the present invention, 2% NaCl is added to the growth media. The plates are then incubated for 16-20 h at 35° C. The plates are then observed to determine which concentration of the test compound is the MIC.
# [2] = tested on: S. aureus ASAU002 (MRSA ATCC 33591); settings: 2% NaCl, 16-20 h at 35° C.; for MIC: Staphylococcus aureus, read-out: MIC ASAU 002
# Protocol: as §1, §2
# [3] = tested on: S. aureus ASAU1028 (CA-MRSA, USA400); settings: 2% NaCl, 16-20 h at 35° C.; for MIC: Staphylococcus aureus, read-out: MIC ASAU 1028
# Protocol: as §1, §2
# [4] = tested on: S. aureus ASAU1029 (CA-MRSA, USA300); settings: 2% NaCl, 16-20 h at 35° C.; for MIC: Staphylococcus aureus, read-out: MIC ASAU 1029
# Protocol: as §1, §2
# [5] = tested on: S. aureus ASAU1033 (MRSA, CIP, ERY, CLIN, TET, GEN resistant); settings: 2% NaCl, 16-20 h at 35° C.; for MIC: Staphylococcus aureus, read-out: MIC ASAU 1033
# Protocol: as §1, §2
# [6] = tested on: S. aureus ASAU1043 (MRSA, CIP, ERY, CLI, GEN resistant); settings: 2% NaCl, 16-20 h at 35° C.; for MIC: Staphylococcus aureus, read-out: MIC ASAU 1043
# Protocol: as §1, §2
Structure (SMILES),MIC [1],MIC [2],MIC [3],MIC [4],MIC [5],MIC [6],MIC ASAU 001 ([1]; 2% NaCl),MIC ASAU 002 [2],MIC ASAU 1028 [3],MIC ASAU 1029 [4],MIC ASAU 1033 [5],MIC ASAU 1043 [6]
"Nc1nc(/C(=N\O)C(=O)NC2C(=O)N3C(C(=O)O)=C(/C=C4\CCN(C5CCNC5)C4=O)CS[C@H]23)ns1 (stereo partly drawn) [Comparative Compound 1, reference compound]",≤ 1 µg/mL,1 to 8 µg/mL,≤ 1 µg/mL,≤ 1 µg/mL,1 to 8 µg/mL,1 to 8 µg/mL,–,–,–,–,–,–
"Nc1nc(/C(=N/O)C(=O)N[C@@H]2C(=O)N3C(C(=O)O)=C(SCc4ccncc4)CC[C@H]23)c(Cl)s1 [Example 17, (6R,7S,Z)-7-(2-(2-amino-5-chlorothiazol-4-yl)-2-(hydroxyimino)acetamido)-8-oxo-3-(pyridin-4-ylmethylthio)-1-aza-bicyclo[4.2.0]oct-2-ene-2-carboxylic acid]",≤ 1 µg/mL,> 8 µg/mL,1 to 8 µg/mL,1 to 8 µg/mL,> 8 µg/mL,> 8 µg/mL,–,–,–,–,–,–
"Nc1nc(/C(=N/O)C(=O)N[C@@H]2C(=O)N3C(C(=O)O)=C(SCc4ccccc4)CC[C@H]23)c(Cl)s1 [Example 18, (6R,7S,Z)-7-(2-(2-amino-5-chlorothiazol-4-yl)-2-(hydroxyimino)acetamido)-3-(benzylthio)-8-oxo-1-aza-bicyclo[4.2.0]oct-2-ene-2-carboxylic acid]",≤ 1 µg/mL,≤ 1 µg/mL,≤ 1 µg/mL,≤ 1 µg/mL,1 to 8 µg/mL,1 to 8 µg/mL,–,–,–,–,–,–
"Cc1ncsc1/C=C\C1=C(C(=O)O)N2C(=O)[C@@H](NC(=O)/C(=N\O)c3nc(N)sc3Cl)[C@H]2CC1 [Example 29, (6R,7S)-7-((Z)-2-(2-amino-5-chlorothiazol-4-yl)-2-(hydroxyimino)acetamido)-3-((Z)-2-(4-methylthiazol-5-yl)vinyl)-8-oxo-1-aza-bicyclo[4.2.0]oct-2-ene-2-carboxylic acid]",≤ 1 µg/mL,1 to 8 µg/mL,≤ 1 µg/mL,≤ 1 µg/mL,1 to 8 µg/mL,1 to 8 µg/mL,–,–,–,–,–,–
"Cc1ncsc1/C=C\C1=C(C(=O)O)N2C(=O)[C@@H](NC(=O)/C(=N\O)c3nc(N)sc3Cl)[C@H]2CC1 [Example 31, (6R,7S)-7-((Z)-2-(2-amino-5-chlorothiazol-4-yl)-2-(hydroxyimino)acetamido)-3-((Z)-2-(4-methylthiazol-5-yl)vinyl)-8-oxo-1-aza-bicyclo[4.2.0]oct-2-ene-2-carboxylic acid]",–,–,–,–,–,–,A (MIC's of 1.0 μg/mL or less = A),B (MIC's of greater than 1.0 μg/mL to 8.0 μg/mL = B),B (MIC's of greater than 1.0 μg/mL to 8.0 μg/mL = B),B (MIC's of greater than 1.0 μg/mL to 8.0 μg/mL = B),B (MIC's of greater than 1.0 μg/mL to 8.0 μg/mL = B),B (MIC's of greater than 1.0 μg/mL to 8.0 μg/mL = B)
"Nc1nc(/C(=N/O)C(=O)N[C@@H]2C(=O)N3C(C(=O)O)=C(/C=C4\CCN([C@@H]5CCNC5)C4=O)CC[C@H]23)c(Cl)s1 [Example 34, (6R,7S)-7-((Z)-2-(2-amino-5-chlorothiazol-4-yl)-2-(hydroxyimino)acetamido)-8-oxo-3-((E)-((R)-2-oxo-1,3′-bipyrrolidin-3-ylidene)methyl)-1-aza-bicyclo[4.2.0]oct-2-ene-2-carboxylic acid]",≤ 1 µg/mL,1 to 8 µg/mL,1 to 8 µg/mL,≤ 1 µg/mL,1 to 8 µg/mL,1 to 8 µg/mL,–,–,–,–,–,–

# Continued, in another order:
MIC [1],MIC [2],MIC [3],MIC [4],MIC [5],MIC [6],MIC ASAU 001 ([1]; 2% NaCl),Structure (SMILES),MIC ASAU 002 [2],MIC ASAU 1028 [3],MIC ASAU 1029 [4],MIC ASAU 1033 [5],MIC ASAU 1043 [6]
≤ 1 µg/mL,≤ 1 µg/mL,1 to 8 µg/mL,1 to 8 µg/mL,1 to 8 µg/mL,1 to 8 µg/mL,–,"Nc1nnc(SC2=C(C(=O)O)N3C(=O)[C@@H](NC(=O)/C(=N\O)c4nc(N)sc4Cl)[C@H]3CC2)s1 [Comparative Compound 2, reference compound]",–,–,–,–,–
≤ 1 µg/mL,1 to 8 µg/mL,1 to 8 µg/mL,1 to 8 µg/mL,> 8 µg/mL,> 8 µg/mL,–,"Nc1nc(/C(=N/O)C(=O)N[C@@H]2C(=O)N3C(C(=O)O)=C(SCSc4nncs4)CC[C@H]23)c(Cl)s1 [Example 23, (6R,7S,Z)-3-((1,3,4-thiadiazol-2-ylthio)methylthio)-7-(2-(2-amino-5-chlorothiazol-4-yl)-2-(hydroxyimino)acetamido)-8-oxo-1-aza-bicyclo[4.2.0]oct-2-ene-2-carboxylic acid]",–,–,–,–,–
≤ 1 µg/mL,1 to 8 µg/mL,1 to 8 µg/mL,1 to 8 µg/mL,> 8 µg/mL,> 8 µg/mL,–,"CNc1nnc(SCSC2=C(C(=O)O)N3C(=O)[C@@H](NC(=O)/C(=N\O)c4nc(N)sc4Cl)[C@H]3CC2)s1 [Example 25, (6R,7S,Z)-7-(2-(2-amino-5-chlorothiazol-4-yl)-2-(hydroxyimino)acetamido)-3-((5-(methylamino)-1,3,4-thiadiazol-2-ylthio)methylthio)-8-oxo-1-aza-bicyclo[4.2.0]oct-2-ene-2-carboxylic acid]",–,–,–,–,–
≤ 1 µg/mL,1 to 8 µg/mL,1 to 8 µg/mL,1 to 8 µg/mL,> 8 µg/mL,> 8 µg/mL,–,"Nc1nc(/C(=N/O)C(=O)N[C@@H]2C(=O)N3C(C(=O)O)=C(SCc4cn[nH]c4)CC[C@H]23)c(Cl)s1 [Example 27, (6R,7S,Z)-3-((1H-pyrazol-4-yl)methylthio)-7-(2-(2-amino-5-chlorothiazol-4-yl)-2-(hydroxyimino)acetamido)-8-oxo-1-aza-bicyclo[4.2.0]oct-2-ene-2-carboxylic acid]",–,–,–,–,–
